# In US9938269B2, “Inhibitor compounds of phosphodiesterase type 10A” (ABBVIE INC., priority 2011, dated 2018):
# Counter-ions that a name gives are not always drawn.
# Target: T1, PDE10A (human) (Homo sapiens, UniProt Q9Y233)
# T1 construct: purchased BPS Bioscience
# Experiment: Measurement of PDE activity (HTRF cAMP kit), human PDE10A
# Type: biochemical
# Settings: PDE enzymatic reaction, substrate 20 nM for PDE10, 60 minutes at 29 C
# Protocol: The recombinant PDE proteins are used in in vitro enzymatic reaction for measurement of PDE activity. These recombinant proteins, including PDE10A (human, rat and mouse PDE10) and isoforms of PDEs 1, 3, 4, and 5, were purchased from commercial vendor BPS Bioscience. The enzymatic activity of PDEs was determined by cAMP measurement kit from CisBio (IBA) using HTRF technology.
# The PDE enzymatic reaction was carried out in assay buffer (20 mM Tris-HCl pH7.5, 10 mM MgCl2, 0.1% bovine serum albumin) containing enzyme and substrate. The PDE enzymes concentration ranged from 10 pM-250 pM, depending on each enzyme's specific activity. The substrate cyclic nucleotide (cAMP or cGMP) concentration used in the assay was 20 nM for PDE10, and 100 nM for other PDEs. The inhibitory effect of compound was determined by incubating various concentration of inhibitor in the enzymatic assay. Typically, compound was serial diluted in DMSO then further diluted in assay buffer. Next, the compound at varying concentration was mixed with PDE enzyme. The reaction was initiated by addition of cyclic nucleotide substrate, and incubated for 60 minutes at 29 C. The reaction was stopped by addition of lysis buffer from assay kit. The cAMP-d2 and anti-cAMP cryptate in the lysis buffer detected the level of cAMP left from the PDE hydrolysis reaction. The PDE activity is reversely correlated with the amount of cAMP left in the reaction and can be converted to the percent activity of an uninhibited control (100%). Thus, IC50 value of inhibitor can be obtained by plotting inhibitor concentration against PDE activity at that concentration.
# T1 sequence (Q9Y233 whole entry): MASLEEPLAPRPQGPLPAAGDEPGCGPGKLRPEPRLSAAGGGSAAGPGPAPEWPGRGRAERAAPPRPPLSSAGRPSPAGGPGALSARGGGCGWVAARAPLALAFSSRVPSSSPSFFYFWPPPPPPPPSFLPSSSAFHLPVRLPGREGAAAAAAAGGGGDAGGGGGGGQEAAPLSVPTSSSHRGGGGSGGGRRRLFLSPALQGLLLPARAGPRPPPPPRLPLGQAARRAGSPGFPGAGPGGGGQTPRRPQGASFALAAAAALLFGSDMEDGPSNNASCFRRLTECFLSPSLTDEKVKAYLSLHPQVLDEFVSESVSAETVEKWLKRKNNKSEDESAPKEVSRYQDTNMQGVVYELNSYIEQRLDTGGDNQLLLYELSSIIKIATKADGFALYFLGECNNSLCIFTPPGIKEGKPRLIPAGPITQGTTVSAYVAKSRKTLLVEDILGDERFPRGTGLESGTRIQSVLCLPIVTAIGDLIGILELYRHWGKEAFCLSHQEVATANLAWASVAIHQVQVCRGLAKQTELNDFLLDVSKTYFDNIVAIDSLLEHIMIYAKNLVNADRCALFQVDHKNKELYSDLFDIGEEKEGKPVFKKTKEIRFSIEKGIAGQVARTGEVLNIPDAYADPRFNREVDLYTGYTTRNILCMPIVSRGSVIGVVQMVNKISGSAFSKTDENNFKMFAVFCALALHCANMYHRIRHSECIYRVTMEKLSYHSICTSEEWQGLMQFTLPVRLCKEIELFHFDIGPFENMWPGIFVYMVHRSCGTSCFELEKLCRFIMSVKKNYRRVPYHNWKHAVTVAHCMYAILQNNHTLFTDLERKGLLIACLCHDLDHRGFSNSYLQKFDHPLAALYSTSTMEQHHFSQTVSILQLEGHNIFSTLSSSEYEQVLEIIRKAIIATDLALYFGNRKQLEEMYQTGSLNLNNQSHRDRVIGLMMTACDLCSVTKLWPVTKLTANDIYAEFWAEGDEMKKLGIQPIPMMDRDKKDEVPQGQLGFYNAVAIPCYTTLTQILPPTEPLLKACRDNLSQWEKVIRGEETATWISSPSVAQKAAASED
row,IC50,Compound
1,< 0.1 µM,"Cc1cc(-c2cccc3c2C(=O)N(CCc2ccc4ccccc4n2)C3)ccn1 [Example 65, 7-(2-Methyl-pyridin-4-yl)-2-(2-quinolin-2-yl-ethyl)-2,3-dihydro-isoindol-1-one]"
2,0.1 to 0.2 µM,"COc1cc(-c2cccc3c2CN(CCc2ccc4ccccc4n2)C3=O)ccn1 [Example 344, 4-(2-Methoxy-pyridin-4-yl)-2-(2-quinolin-2-yl-ethyl)-2,3-dihydro-isoindol-1-one]"
3,< 0.1 µM,"O=C1c2c(cccc2-c2ccncc2)CN1CCc1ccc2ccccc2n1 [Example 5, 7-Pyridin-4-yl-2-(2-quinolin-2-yl-ethyl)-2,3-dihydro-isoindol-1-one]"
4,0.2 to 0.5 µM,"Cn1cncc1-c1cccc2c1C(=O)N(CCc1ccc3ccccc3n1)C2 [Example 94, 7-(3-Methyl-3H-imidazol-4-yl)-2-(2-quinolin-2-yl-ethyl)-2,3-dihydro-isoindol-1-one]"
5,< 0.1 µM,"O=C1c2c(cccc2-c2ccc(F)cc2)CN1CCc1ccc2ccccc2n1 [Example 22, 7-(4-Fluoro-phenyl)-2-(2-quinolin-2-yl-ethyl)-2,3-dihydro-isoindol-1-one]"
6,0.2 to 0.5 µM,"O=C1c2c(cccc2-c2ccc3occc3c2)CN1CCc1ccc2ccccc2n1 [Example 72, 7-Benzofuran-5-yl-2-(2-quinolin-2-yl-ethyl)-2,3-dihydro-isoindol-1-one]"
7,< 0.1 µM,"O=C1c2c(-c3ccsc3)ccnc2CN1CCc1ccc2ccccc2n1 [Example 330, 6-(2-Quinolin-2-yl-ethyl)-4-thiophen-3-yl-6,7-dihydro-pyrrolo[3,4-b]pyridin-5-one]"
8,< 0.1 µM,"O=C1c2c(-c3cccnc3)ccc(F)c2CN1CCc1ccc2ccccc2n1 [compound 438, 4-fluoro-7-(3-pyridyl)-2-[2-(2-quinolyl)ethyl]isoindolin-1-one]"
9,0.1 to 0.2 µM,"O=C1c2c(cccc2-c2ccnc(Cl)c2)CN1CCc1ccc2ccccc2n1 [Example 171, 7-(2-Chloro-pyridin-4-yl)-2-(2-quinolin-2-yl-ethyl)-2,3-dihydro-isoindol-1-one trifluoroacetate]"
10,0.2 to 0.5 µM,"COc1cc(-c2cccc3c2C(=O)N(CCc2ccc4ccccc4n2)C3)ccn1 [Example 182, 7-(2-Methoxy-pyridin-4-yl)-2-(2-quinolin-2-yl-ethyl)-2,3-dihydro-isoindol-1-one trifluoroacetate]"

# Further lines, the molecule ahead of its results:
row,Compound,IC50
1,"Cc1cnccc1-c1ccnc2c1C(=O)N(CCc1ccc3ccccc3n1)C2 [Example 322, 4-(3-Methyl-pyridin-4-yl)-6-(2-quinolin-2-yl-ethyl)-6,7-dihydro-pyrrolo[3,4-b]pyridin-5-one]",< 0.1 µM
2,"O=C1c2c(cccc2-c2ccncc2)CN1CC(F)(F)c1ccc2ccccc2n1 [Example 13, 2-(2,2-Difluoro-2-quinolin-2-yl-ethyl)-7-pyridin-4-yl-2,3-dihydro-isoindol-1-one]",< 0.1 µM
3,"CN1CCN(S(=O)(=O)c2cccc3c2CN(c2cccc4c2CN(CCc2ccc5ccccc5n2)C4=O)CC3)CC1 [Example 321, 4-[8-(4-Methyl-piperazine-1-sulfonyl)-3,4-dihydro-1H-isoquinolin-2-yl]-2-(2-quinolin-2-yl-ethyl)-2,3-dihydro-isoindol-1-one]",0.2 to 0.5 µM
4,"O=C1c2c(N3CC4COCC4C3)ccnc2CN1CCc1ccc2ccccc2n1 (stereo not shown) [Example 260, 6-(2-Quinolin-2-yl-ethyl)-4-(tetrahydro-furo[3,4-c]pyrrol-5-yl)-6,7-dihydro-pyrrolo[3,4-b]pyridin-5-one]",< 0.1 µM
5,"CNCOc1ccc(-c2ccncc2)c2c1CN(CCc1ccc3ccccc3n1)C2=O [Example 276, 4-Methylaminomethoxy-7-pyridin-4-yl-2-(2-quinolin-2-yl-ethyl)-2,3-dihydro-isoindol-1-one]",< 0.1 µM
6,"O=C1c2cccc(-c3ccoc3)c2CN1CCc1ccc2ccccc2n1 [Example 346, 4-Furan-3-yl-2-(2-quinolin-2-yl-ethyl)-2,3-dihydro-isoindol-1-one]",< 0.1 µM
7,"O=C1c2c(-c3cncnc3)ccc(F)c2CN1CCc1ccc2ccccc2n1 [compound 443, 4-Fluoro-7-pyrimidin-5-yl-2-[2-(2-quinolyl)ethyl]isoindolin-1-one trifluoroacetate]",< 0.1 µM
8,"CSCOc1ccc(-c2ccncc2)c2c1CN(CCc1ccc3ccccc3n1)C2=O [Example 267, 4-Methylsulfanylmethoxy-7-pyridin-4-yl-2-(2-quinolin-2-yl-ethyl)-2,3-dihydro-isoindol-1-one]",< 0.1 µM
9,"O=C1c2cccc(N3CCNCC3)c2CN1CCc1ccc2ccccc2n1 [Example 141, 4-piperazin-1-yl-2-(2-quinolin-2-yl-ethyl)-2,3-dihydro-isoindol-1-one]",0.2 to 0.5 µM
10,"O=C1c2c(-c3ccc(F)cc3)ccc(F)c2CN1CCc1ccc2ccccc2n1 [compound 444, 4-Fluoro-7-(4-fluorophenyl)-2-[2-(2-quinolyl)ethyl]isoindolin-1-one]",< 0.1 µM
11,"COc1ccc(-c2ccc(F)c3c2C(=O)N(CCc2ccc4ccccc4n2)C3)cc1 [compound 441, 4-Fluoro-7-(4-methoxyphenyl)-2-[2-(2-quinolyl)ethyl]isoindolin-1-one]",0.1 to 0.2 µM
12,"CCn1cc(-c2cccc3c2CN(CCc2ccc4ccccc4n2)C3=O)cn1 [Example 347, 4-(1-Ethyl-1H-pyrazol-4-yl)-2-(2-quinolin-2-yl-ethyl)-2,3-dihydro-isoindol-1-one]",0.1 to 0.2 µM
13,"CCn1c(CCN2Cc3cccc(-c4ccncc4)c3C2=O)nc2ccccc21 [Example 222, 2-[2-(1-Ethyl-1H-benzoimidazol-2-yl)-ethyl]-7-pyridin-4-yl-2,3-dihydro-isoindol-1-one trifluoroacetate]",< 0.1 µM
14,"O=C1c2c(-c3ccncc3)ccc(F)c2CN1CCc1ccc2ccccc2n1 [Example 16, 4-Fluoro-7-pyridin-4-yl-2-(2-quinolin-2-yl-ethyl)-2,3-dihydro-isoindol-1-one]",< 0.1 µM
15,"O=C1c2c(N3CCOCC3)ccc(F)c2CN1CCc1ccc2ccccc2n1 [compound 440, 4-Fluoro-7-morpholino-2-[2-(2-quinolyl)ethyl]isoindolin-1-one]",< 0.1 µM
16,"Cn1c2cccc(-c3ccncc3)c2c(=O)n1CCc1ccc2ccccc2n1 [Example 17, 1-Methyl-4-(pyridin-4-yl)-2-(2-(quinolin-2-yl)ethyl)-1,2-dihydroindazol-3-one]",< 0.1 µM
17,"O=C1c2cccc(-c3cscn3)c2CN1CCc1ccc2ccccc2n1 [Example 355, 2-(2-Quinolin-2-yl-ethyl)-4-thiazol-4-yl-2,3-dihydro-isoindol-1-one]",< 0.1 µM
18,"O=C1c2c(-c3ccncc3)ccnc2CN1CCc1cn2ccsc2n1 [compound 423, 6-(2-Imidazo[2,1-b]thiazol-6-ylethyl)-4-(4-pyridyl)-7H-pyrrolo[3,4-b]pyridin-5-one trifluoroacetate]",< 0.1 µM
19,"O=C1c2c(-c3ccoc3)ccnc2CN1CCc1ccc2ccccc2n1 [Example 331, 4-Furan-3-yl-6-(2-quinolin-2-yl-ethyl)-6,7-dihydro-pyrrolo[3,4-b]pyridin-5-one]",< 0.1 µM
20,O=C1c2c(N3CCC(C(F)F)C3)ccnc2CN1CCc1ccc2ccccc2n1 (stereo not shown) [compound 434],< 0.1 µM
21,"COCCCOc1ccc(-c2ccncc2)c2c1CN(CCc1ccc3ccccc3n1)C2=O [Example 204, 4-(3-Methoxy-propoxy)-7-pyridin-4-yl-2-(2-quinolin-2-yl-ethyl)-2,3-dihydro-isoindol-1-one]",< 0.1 µM
